Counter-ions that a name gives are not always drawn.
Target: T1, human PAR-2 (hPAR-2) receptor expressed in HEK-293 T cells in an endogenous manner (Homo sapiens, UniProt P55085)
T1 construct: human PAR-2 (hPAR-2) receptor expressed in HEK-293 T cells in an endogenous manner; endogenous in cells; host or cells: HEK-293 T cells
T1 sequence (P55085 26-397): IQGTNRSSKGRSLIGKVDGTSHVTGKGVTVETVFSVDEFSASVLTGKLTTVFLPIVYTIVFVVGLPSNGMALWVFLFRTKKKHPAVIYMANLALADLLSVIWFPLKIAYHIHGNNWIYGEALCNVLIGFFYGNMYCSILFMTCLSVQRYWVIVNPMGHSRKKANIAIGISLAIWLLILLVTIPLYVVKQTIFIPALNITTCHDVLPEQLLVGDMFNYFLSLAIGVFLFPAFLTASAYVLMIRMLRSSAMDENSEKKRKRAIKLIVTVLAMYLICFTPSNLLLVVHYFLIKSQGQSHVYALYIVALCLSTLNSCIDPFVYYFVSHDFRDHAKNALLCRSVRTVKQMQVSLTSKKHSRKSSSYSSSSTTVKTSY
Experiment: In vitro human PAR-2 functional antagonist activity using calcium assays (Fluo4AM, FLIPR Tetra)
Type: cell-based
Conditions: HEK-293 T cells stimulated by an EC80 of the 2-Furoyl-LIGRLO-NH2 peptide after 10 min incubation with compound; 20 concentrations, duplicate, two independent experiments
In short: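 Antagonist activity was taken as the decrease in the calcium response to an EC80 of 2-Furoyl-LIGRLO-NH2, measured over 5 min. The agonist was added after a 10 min compound-alone step on the same plate. The HEK-293 T cells express PAR-2 endogenously and were loaded with 1 μM Fluo4AM. Signals were referenced to buffer and EC80-alone controls.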

IC50 [nM] | SMILES
< 20 | Cc1cc(N2CCN(C(=O)c3ccc4c(-c5ccc(Cl)c(F)c5)cn(CC5(C)CCOCC5)c4n3)C(C)(C)C2)nc(C)c1C(=O)O [Example 183, 6-(4-(3-(4-chloro-3-fluorophenyl)-1-((4-methyltetrahydro-2H-pyran-4-yl)methyl)-1H-pyrrolo[2,3-b]pyridine-6-carbonyl)-3,3-dimethylpiperazin-1-yl)-2,4-dimethyinicotinic acid]
< 20 | Cc1cc(N2CCN(C(=O)c3ccc4c(-c5ccc(Cl)c(F)c5)cn(C[C@H]5CCOC5)c4n3)C(C)(C)C2)nc(C)c1C(=O)O [Example 184, (R)-6-(4-(3-(4-chloro-3-fluorophenyl)-1-((tetrahydrofuran-3-yl)methyl)-1H-pyrrolo[2,3-b]pyridine-6-carbonyl)-3,3-dimethylpiperazin-1-yl)-2,4-dimethyinicotinic acid]
< 20 | Cc1cc(N2CCN(C(=O)c3ccc4c(n3)c(C(C)(C)C)cn4-c3ccc(Cl)c(F)c3)C(C)(C)C2)nc(C)c1C(=O)O [Example 185, 6-(4-(3-(tert-butyl)-1-(4-chloro-3-fluorophenyl)-1H-pyrrolo[3,2-b]pyridine-5-carbonyl)-3,3-dimethylpiperazin-1-yl)-2,4-dimethylnicotinic acid]
> 10000 | Cc1cc2c(-c3ccc(Cl)c(F)c3)cn(CC(C)C)c2nc1C(=O)N1CCN(c2cc(C)c(C(=O)O)c(C)n2)CC1 [Example 186, 6-(4-(3-(4-chloro-3-fluorophenyl)-1-isobutyl-5-methyl-1H-pyrrolo[2,3-b]pyridine-6-carbonyl)piperazin-1-yl)-2,4-dimethylnicotinic acid]
20 to 10000 | CC(C)(C)n1cc(-c2ccc(Cl)c(F)c2)c2ccc(C(=O)N3CCC(Cn4cc(C(=O)O)cn4)CC3)nc21 [Example 187, 1-((1-(1-(tert-butyl)-3-(4-chloro-3-fluorophenyl)-1H-pyrrolo[2,3-b]pyridine-6-carbonyl)piperidin-4-yl)methyl)-1H-pyrazole-4-carboxylic acid]
20 to 10000 | Cc1cc(N2CCN(C(=O)c3cc(C)c4c(-c5ccc(Cl)c(F)c5)cn(CC(C)C)c4n3)C(C)(C)C2)nc(C)c1C(=O)O [Example 188, 6-(4-(3-(4-chloro-3-fluorophenyl)-1-isobutyl-4-methyl-1H-pyrrolo[2,3-b]pyridine-6-carbonyl)-3,3-dimethylpiperazin-1-yl)-2,4-dimethyinicotinic acid]
> 10000 | Cc1cc(N2CCN(C(=O)c3cc(C)c4c(-c5ccc(Cl)c(F)c5)cn(CC(C)C)c4n3)CC2)nc(C)c1C(=O)O [Example 189, 6-(4-(3-(4-chloro-3-fluorophenyl)-1-isobutyl-4-methyl-1H-pyrrolo[2,3-b]pyridine-6-carbonyl)piperazin-1-yl)-2,4-dimethylnicotinic acid]
< 20 | Cc1cc(N2CCN(C(=O)c3cnc4c(-c5ccc(Cl)c(F)c5)cn(CC(C)C)c4n3)C(C)(C)C2)nc(C)c1C(=O)O [Example 190, 6-(4-(7-(4-chloro-3-fluorophenyl)-5-isobutyl-5H-pyrrolo[2,3-b]pyrazine-3-carbonyl)-3,3-dimethylpiperazin-1-yl)-2,4-dimethylnicotinic acid]
< 20 | Cc1cc(N2CCN(C(=O)c3ccc4c(-c5ccc(F)c(F)c5)cn(C(C)(C)C)c4n3)C(C)(C)C2)nc(C)c1C(=O)O [Example 191, 6-(4-(1-(tert-butyl)-3-(3,4-difluorophenyl)-1H-pyrrolo[2,3-b]pyridine-6-carbonyl)-3,3-dimethylpiperazin-1-yl)-2,4-dimethylnicotinic acid]
< 20 | Cc1cccc(Cn2cc(-c3ccc(Cl)c(F)c3)c3ccc(C(=O)N4CCN(c5cc(C)c(C(=O)O)c(C)n5)CC4(C)C)nc32)n1 [Example 192, 6-(4-(3-(4-chloro-3-fluorophenyl)-1-((6-methylpyridin-2-yl)methyl)-1H-pyrrolo[2,3-b]pyridine-6-carbonyl)-3,3-dimethylpiperazin-1-yl)-2,4-dimethylnicotinic acid hydrochloride]
< 20 | Cc1cccnc1Cn1cc(-c2ccc(Cl)c(F)c2)c2ccc(C(=O)N3CCN(c4cc(C)c(C(=O)O)c(C)n4)CC3(C)C)nc21 [Example 193, 6-(4-(3-(4-chloro-3-fluorophenyl)-1-((3-methylpyridin-2-yl)methyl)-1H-pyrrolo[2,3-b]pyridine-6-carbonyl)-3,3-dimethylpiperazin-1-yl)-2,4-dimethylnicotinic acid hydrochloride]
> 10000 | CC1(C)CN(c2ccc(P(=O)(O)O)cn2)CCN1C(=O)c1ccc2c(-c3ccc(Cl)c(F)c3)cn(C(C)(C)C)c2n1 [Example 194, (6-(4-(1-(tert-butyl)-3-(4-chloro-3-fluorophenyl)-1H-pyrrolo[2,3-b]pyridine-6-carbonyl)-3,3-dimethylpiperazin-1-yl)pyridin-3-yl)phosphonic acid]
20 to 10000 | CN1C(=O)N(C)C2(CCN(C(=O)c3ccc4c(-c5ccc(Cl)c(F)c5)cn(C(C)(C)C)c4n3)CC2)C1=O [Example 197, 8-(1-(tert-butyl)-3-(4-chloro-3-fluorophenyl)-1H-pyrrolo[2,3-b]pyridine-6-carbonyl)-1,3-dimethyl-1,3,8-triazaspiro[4.5]decane-2,4-dione]
20 to 10000 | Cc1cc(NC2CCN(C(=O)c3ccc4c(-c5ccc(Cl)c(F)c5)cn(C(C)(C)C)c4n3)CC2C)nc(C)c1C(=O)O (stereo not shown) [Example 198, 6-((1-(1-(tert-butyl)-3-(4-chloro-3-fluorophenyl)-1H-pyrrolo[2,3-b]pyridine-6-carbonyl)-3-methylpiperidin-4-yl)amino)-2,4-dimethylnicotinic acid]
20 to 10000 | CC(C)(C)n1cc(-c2ccc(Cl)c(F)c2)c2ccc(C(=O)N3CCC4(NC(=O)NC4=O)C(C)(C)C3)nc21 (stereo not shown) [Example 200, 8-(1-(tert-butyl)-3-(4-chloro-3-fluorophenyl)-1H-pyrrolo[2,3-b]pyridine-6-carbonyl)-6,6-dimethyl-1,3,8-triazaspiro[4.5]decane-2,4-dione]
20 to 10000 | CC(C)(C)n1cc(-c2ccc(Cl)c(F)c2)c2ccc(C(=O)N3CCC4(NC(=O)NC4=O)C(F)(F)C3)nc21 (stereo not shown) [Example 201, 8-(1-(tert-butyl)-3-(4-chloro-3-fluorophenyl)-1H-pyrrolo[2,3-b]pyridine-6-carbonyl)-6,6-difluoro-1,3,8-triazaspiro[4.5]decane-2,4-dione]
20 to 10000 | CC(C)(C)n1cc(-c2ccc(Cl)c(F)c2)c2ccc(C(=O)N3CCC4(CCC(=O)N4)CC3)nc21 [Example 202, 8-(1-(tert-butyl)-3-(4-chloro-3-fluorophenyl)-1H-pyrrolo[2,3-b]pyridine-6-carbonyl)-1,8-diazaspiro[4.5]decan-2-one]
20 to 10000 | COC(=O)CC1CCN(C(=O)c2ccc3c(-c4ccc(Cl)c(F)c4)cn(CC(C)C)c3c2)CC1 [Example 203, methyl 2-(1-(3-(4-chloro-3-fluorophenyl)-1-isobutyl-1H-indole-6-carbonyl)piperidin-4-yl)acetate]
20 to 10000 | CC(C)Cn1cc(-c2ccc(Cl)c(F)c2)c2ccc(C(=O)N3CCC(CC(=O)O)CC3)cc21 [Example 204, 2-(1-(3-(4-chloro-3-fluorophenyl)-1-isobutyl-1H-indole-6-carbonyl)piperidin-4-yl)acetic acid]
< 20 | Cc1cc(N2CCN(C(=O)c3ccc4c(-c5ccc(Cl)c(F)c5)c(C(F)(F)F)n(CC(C)C)c4n3)C(C)(C)C2)nc(C)c1C(=O)O [Example 205, 6-(4-(3-(4-chloro-3-fluorophenyl)-1-isobutyl-2-(trifluoromethyl)-1H-pyrrolo[2,3-b]pyridine-6-carbonyl)-3,3-dimethylpiperazin-1-yl)-2,4-dimethyinicotinic acid]
> 10000 | CC(=O)c1cn(-c2ccc(Cl)c(F)c2)c2ccc(C(=O)N3CCC(CC(=O)O)CC3)cc12 [Example 206, 2-(1-(3-acetyl-1-(4-chloro-3-fluorophenyl)-1H-indole-5-carbonyl)piperidin-4-yl)acetic acid]
< 20 | CC(C)N1CNC(=O)C12CCN(C(=O)c1ccc3c(-c4ccc(Cl)c(F)c4)cn(C(C)(C)C)c3n1)CC2 [Example 207, 8-(1-(tert-butyl)-3-(4-chloro-3-fluorophenyl)-1H-pyrrolo[2,3-b]pyridine-6-carbonyl)-1-isopropyl-1,3,8-triazaspiro[4.5]decan-4-one]
> 10000 | CC(C)(C)n1cc(-c2ccc(Cl)c(F)c2)c2ccc(C(=O)N3CCN(c4cn[nH]c(=O)c4)CC3)nc21 [Example 208, 5-(4-(1-(tert-butyl)-3-(4-chloro-3-fluorophenyl)-1H-pyrrolo[2,3-b]pyridine-6-carbonyl)piperazin-1-yl)pyridazin-3(2H)-one]
> 10000 | CN1CNC(=O)C12CCN(C(=O)c1ccc3c(-c4ccc(Cl)c(F)c4)cn(C(C)(C)C)c3n1)CC2 [Example 209, 8-(1-(tert-butyl)-3-(4-chloro-3-fluorophenyl)-1H-pyrrolo[2,3-b]pyridine-6-carbonyl)-1-methyl-1,3,8-triazaspiro[4.5]decan-4-one]

SMILES | IC50 [nM]
CCOP(=O)(O)c1ccc(N2CCN(C(=O)c3ccc4c(-c5ccc(Cl)c(F)c5)cn(C(C)(C)C)c4n3)C(C)(C)C2)nc1 [Example 195, ethyl hydrogen (6-(4-(1-(tert-butyl)-3-(4-chloro-3-fluorophenyl)-1H-pyrrolo[2,3-b]pyridine-6-carbonyl)-3,3-dimethylpiperazin-1-yl)pyridin-3-yl)phosphonate] | 20 to 10000

From patent US20240066027A1 (DOMAIN THERAPEUTICS, priority 2020, published 2024)
